Source: patent US20230407243A1, “GENETIC PLATFORM TO INVESTIGATE THE FUNCTIONS OF BACTERIAL DRUG EFFLUX PUMPS” (priority 2022, published 2023)
Like-named read-outs stand apart in the source and are kept apart here.

Columns and labels:
Format in all cases: cell-based, Escherichia coli
[1] = test system: EKO-35 araC::acrEF; experiment: MIC susceptibility profiling, efflux platform
In short: (§1)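 Strains are grown overnight in LB at 37 °C, adjusted to OD600 ~1.0 in PBS (pH 7.4) and diluted 1/2000 into MHB II. They are incubated with twofold compound dilutions for 18 h at 37 °C. MIC comes from background-subtracted OD600.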

[2] = test system: EKO-35 araC::acrBD408A; experiment: MIC susceptibility profiling, efflux platform
In short: as §1

[3] = test system: EKO-35 araC::mdtBC; experiment: MIC susceptibility profiling, efflux platform
In short: as §1

[4] = test system: EKO-35 araC::macAB Pore; experiment: MIC susceptibility profiling, porinated efflux platform
In short: (§2)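 MIC values come from background-corrected OD600 readings (pre-incubation OD subtracted) after 18 h at 37 °C and 900 rpm in MHB II. Compounds were tested in duplicate as 2-fold dilutions. The inoculum came from 18 h LB cultures adjusted to OD600 ~1.0 and diluted 1/2000, and the pore-bearing strains were vancomycin-checked beforehand.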

[5] = test system: EKO-35 araC::mdtEF Pore; experiment: as above
In short: as §2

[6] = test system: EKO-35 araC::emrKY Pore; experiment: as above
In short: as §2

[7] = test system: EKO-35 araC::acrB Pore; experiment: as above; conditions: EKO-35 araC::acr-B Pore compared to EKO-35-Pore
In short: as §2

[8] = test system: EKO-35 araC::acrEF Pore; experiment: as above
In short: as §2

[9] = test system: EKO-35 araC::mdtBC Pore; experiment: as above
In short: as §2

[10] = test system: EKO-35 araC::emrAB Pore; experiment: as above
In short: as §2

[11] = test system: EKO-35 araC::mexCD Pore; experiment: as above
In short: as §2

[12] = test system: EKO-35 araC::acrD Pore; experiment: as above
In short: as §2

[13] = test system: EKO-35 araC::acrBD408A Pore; experiment: as above
In short: as §2

[14] = test system: wild-type E. coli K-12 str. BW25113; experiment: microbe, parasite or virus in culture; conditions: Escherichia coli, BW25113, technical duplicate
In short: as §1

[15] = test system: E. coli EKO-35; experiment: microbe, parasite or virus in culture; conditions: for MIC: Escherichia coli, EKO35, technical duplicate
In short: as §1

[16] = test system: E. coli ΔtolC; experiment: microbe, parasite or virus in culture
In short: as §1

[17] = test system: wild-type (WT) K-12-Pore; experiment: microbe, parasite or virus in culture; conditions: Escherichia coli, technical duplicate
In short: as §2

[18] = test system: ΔtolC-Pore; experiment: microbe, parasite or virus in culture
In short: as §2

[19] = test system: EKO-35-Pore; experiment: MIC susceptibility profiling, porinated strain; conditions: for MIC: Escherichia coli, technical duplicate
In short: as §2

## COc1ccc(C[C@H](N)C(=O)N[C@H]2[C@@H](O)[C@H](n3cnc4c(N(C)C)ncnc43)O[C@@H]2CO)cc1 [puromycin]
[1]; EKO-35 araC::acrEF compared to EKO-35
  Fold change of MICs: 4 fold
[1]; Escherichia coli, Table 13A, non-porinated, technical duplicate, read-out: Minimum Inhibitory Concentration, EKO-35 araC::acrEF
  MIC: 6.25 µg/mL
[2]; EKO-35 araC::acrBD408A compared to EKO-35
  Fold change of MICs: 1 fold
[2]; Escherichia coli, Table 13B, non-porinated, technical duplicate, read-out: Minimum Inhibitory Concentration, EKO-35 araC::acrBD408A
  MIC: 1.56 µg/mL
[3]; EKO-35 araC::mdtBC compared to EKO-35
  Fold change of MICs: 1 fold
[3]; Escherichia coli, Table 13B, non-porinated, technical duplicate, read-out: Minimum Inhibitory Concentration, EKO-35 araC::mdtBC
  MIC: 1.56 µg/mL
[4]; EKO-35 araC::macAB Pore compared to EKO-35-Pore
  Fold changes of MICs: 1 fold
[4]; Escherichia coli, EKO-35 araC::macAB Pore, technical duplicate, read-out: Minimum inhibitory concentration
  MIC: 0.781 µg/mL
[5]; EKO-35 araC::mdtEF Pore compared to EKO-35-Pore
  Fold changes of MICs: 2 fold
[5]; Escherichia coli, Table 14A, porinated, technical duplicate, read-out: Minimum inhibitory concentration, EKO-35 araC::mdtEF Pore
  MIC: 1.56 µg/mL
[6]; EKO-35 araC::emrKY Pore compared to EKO-35-Pore
  Fold changes of MICs: 2 fold
[6]; Escherichia coli, EKO-35 araC::emrKY Pore, technical duplicate, read-out: Minimum inhibitory concentration
  MIC: 1.56 µg/mL
[7]
  Fold changes of MICs: 64 fold
[8]; EKO-35 araC::acrEF Pore compared to EKO-35-Pore
  Fold changes of MICs: 4 fold
[8]; Escherichia coli, Table 14A, porinated, technical duplicate, read-out: Minimum inhibitory concentration, EKO-35 araC::acrEF Pore
  MIC: 3.12 µg/mL
[9]; EKO-35 araC::mdtBC Pore compared to EKO-35-Pore
  Fold changes of MICs: 1 fold
[9]; Escherichia coli, EKO-35 araC::mdtBC Pore, technical duplicate, read-out: Minimum inhibitory concentration
  MIC: 0.781 µg/mL
[10]; EKO-35 araC::emrAB Pore compared to EKO-35-Pore
  Fold changes of MICs: 1 fold
[10]; Escherichia coli, EKO-35 araC::emrAB Pore, technical duplicate, read-out: Minimum inhibitory concentration
  MIC: 0.781 µg/mL
[11]; EKO-35 araC::mexCD Pore compared to EKO-35-Pore
  Fold changes of MICs: 2 fold
[11]; Escherichia coli, EKO-35 araC::mexCD Pore, technical duplicate, read-out: Minimum inhibitory concentration
  MIC: 1.56 µg/mL
[11]; MexCD, OM compromised
  efflux pump-mediated resistance vs EKO-35-Pore: no longer associated MexCD with resistance
[12]; EKO-35 araC::acrD Pore compared to EKO-35-Pore
  Fold changes of MICs: 1 fold
[12]; Escherichia coli, Table 14A, porinated, technical duplicate, read-out: Minimum inhibitory concentration, EKO-35 araC::acrD Pore
  MIC: 0.781 µg/mL
[13]; EKO-35 araC::acrBD408A Pore compared to EKO-35-Pore
  Fold changes of MICs: 1 fold
[13]; Escherichia coli, EKO-35 araC::acrBD408A Pore, technical duplicate, read-out: Minimum inhibitory concentration
  MIC: 0.781 µg/mL
[14]; Table 10, without pore, read-out: Minimum inhibitory concentration (MIC), K-12
  MIC: 50 µg/mL
[14]; Table 13A, non-porinated, read-out: Minimum Inhibitory Concentration, K-12
  MIC: 50 µg/mL
[15]; EKO-35 compared to EKO-35 (reference)
  Fold change of MICs: 1 fold
[15]; Table 10, without pore, read-out: Minimum inhibitory concentration (MIC), EKO-35
  MIC: 1.56 µg/mL
[15]; Table 13A, non-porinated, read-out: Minimum Inhibitory Concentration, EKO-35
  MIC: 1.56 µg/mL
[16]; Escherichia coli, 18 h, read-out: Minimum Inhibitory Concentration, ΔtolC
  MIC: 3.12 µg/mL
[16]; Table 10, without pore, technical duplicate
  Minimum inhibitory concentration (MIC), ΔtolC: 3.125 µg/mL
[17]; Table 10, with pore, read-out: Minimum inhibitory concentration (MIC), Pore K-12
  MIC: 50 µg/mL
[17]; Table 14A, porinated, read-out: Minimum inhibitory concentration, K-12 (WT)-Pore
  MIC: 50 µg/mL
[18]; Escherichia coli, 18 h, read-out: Minimum inhibitory concentration, ΔtolC-Pore
  MIC: 1.56 µg/mL
[18]; Table 10, with pore, technical duplicate
  Minimum inhibitory concentration (MIC), Pore ΔtolC: 1.563 µg/mL
[19]; EKO-35-Pore compared to EKO-35-Pore (reference)
  Fold changes of MICs: 1 fold
[19]; Table 10, with pore, read-out: Minimum inhibitory concentration (MIC), Pore EKO-35
  MIC: 0.781 µg/mL
[19]; Table 14A, porinated, read-out: Minimum inhibitory concentration, EKO-35-Pore
  MIC: 0.781 µg/mL
